Key:
WI-38 cells [1] = assay: Wash-out (duration of action) experiment, PGE2 production in IL-1β-stimulated WI-38 cells; assay type: cell-based, human; settings: 2 hours at 50 times the IC50, washed 5 times, IL-1β stimulation, 24 hours
Experimental: (§1) The WI-38 human lung fibroblast line was obtained from the ATCC (catalog number 75-CCL) and maintained in Basel Medium Eagle with Earle's salts (GibcoBRL product number 21010-046) supplemented with 2 mM glutamine and 10% fetal calf serum at 37° C. in a 7% CO2 (balance air), humidified atmosphere. One week before experiments were done, the WI-38 cells were seeded into 48-well tissue culture dishes and maintained in media containing 10% fetal calf serum. The cells were used when confluent. The day before the experiment the cells were fed fresh media containing 10% fetal calf serum (0.25 ml per well). One the day of the experiment the media was removed from the cells and 0.25 ml of media containing 5% fetal calf serum added.
(§2) To test for duration of action, a wash-out experiment was performed as follows. Confluent cells in 48-well tissue culture dishes were treated with concentrations of the above compounds that were 50 times the IC50 values as determined above for 2 hours. The media was removed and the wells washed 5 times with 0.25 ml of media containing 5% fetal calf serum. 0.25 ml of media containing 5% fetal calf serum was then added. The WI-38 cells were stimulated by addition of 0.001 ml of 0.025 ug/ml recombinant human Interleukin-1β (Calbiochem catalog number 407615) in 0.1% bovine serum albumin in phosphate buffered saline. The RAW 264.7 cells were stimulated by addition of 0.001 ml of 0.5 ug/ml E. coli 0127:B8 lipopolysaccharide (LPS-Sigma catalog number L-4516) in 0.1% bovine serum albumin in phosphate buffered saline. The cells were incubated for 24 hours and the supernatants harvested. The level of PGE2 in the supernatants was assayed using a commercial Enzyme Immuno Assay (EIA) kit (Cayman Chemical catalog number 514010) after diluting 1:10 in EIA buffer according to the manufacturer's directions. Eight wells were used for each concentration and the results from these eight wells were averaged.

WI-38 cells [2] = assay: IC50 for inhibition of IL-1β-stimulated PGE2 production in WI-38 cells; assay type: cell-based, human; settings: PGE2 in supernatant, IL-1β stimulation, 24 hours, EIA
Experimental: Nominal 5 mM solutions of the budesonide fatty acid esters were made in DMSO by adding the following amounts of compound and DMSO: docosahexaenoic acid ester of budesonide 7.5 mg in 2 ml DMSO, docosapentaenoic acid ester of budesonide 32.9 mg in 9.1 ml DMSO and eicosapentaenoic acid ester of budesonide 20.3 mg in 5.8 ml DMSO. A 5 mM solution of budesonide was made by dissolving 4.5 mg of budesonide (Sigma Chemical Company product number B 7777) in 2.1 ml DMSO.
as §1
To determine the IC50 values for the compounds, 1 to 1000 dilutions were made of the 5 mM stock solutions in DMSO to give 5 uM solutions. These solutions were serially diluted 1:2 in DMSO to give a series of 12 dilutions ranging from 5 uM to 2.4 nM. 0.0025 ml aliquots of the 12 dilutions were added to wells of the WI-38 cells to give final compound concentrations ranging from 50 nM to 0.024 nM. The cells were stimulated by addition of 0.001 ml of 0.025 ug/ml recombinant human Interleukin-1β (IL-1β-Calbiochem catalog number 407615) in 0.1% bovine serum albumin in phosphate buffered saline. The cells were incubated for 24 hours and the supernatants harvested. The level of PGE2 in the supernatants was assayed using a commercial Enzyme Immuno Assay (EIA) kit (Cayman Chemical catalog number 514010) after diluting 1:10 in EIA buffer according to the manufacturer's directions. The data from these experiments was fit to a 4 parameter logistic function using the IC50 routine in the Grafit 4 program (Erithecus software).

paw edema = assay: Rat paw edema model; assay type: in vivo
Experimental: Putative anti-inflammatory agents may also be tested in vivo in a rat paw edema model [Hirschelmann, R. and Bekemeier, H., Int J Tissue React 6, 471-475 (1984)], which persons of skill in the art accept as predictive of efficacy in treating asthma and rhinitis in humans. The phytanic acid ester of budesonide was tested in this model.

RAW 264.7 cells = assay: Wash-out (duration of action) experiment, PGE2 production in LPS-stimulated RAW 264.7 cells; assay type: cell-based, rat; settings: 2 hours at 50 times the IC50, washed 5 times, E. coli LPS stimulation, 24 hours
Experimental: The […] cell line RAW 264.7 was obtained from the ATCC (catalog number 71-TIB) and maintained in Dulbecco's Modified Eagle Medium (GibcoBRL product number 11960-044) supplemented with 2 mM glutamine, 1 mM sodium pyruvate and 10% fetal calf serum at 37° C. in a 10% CO2 (balance air), humidified atmosphere. One week before experiments were done, the WI-38 cells were seeded into 48-well tissue culture dishes and maintained in media containing 10% fetal calf serum. The cells were used when confluent. The day before the experiment the cells were fed fresh media containing 10% fetal calf serum (0.25 ml per well). One the day of the experiment the media was removed from the cells and 0.25 ml of media containing 5% fetal calf serum added.
as §2

## CCCC1O[C@@H]2C[C@H]3[C@@H]4CCC5=CC(=O)C=C[C@]5(C)[C@H]4[C@@H](O)C[C@]3(C)[C@]2(C(=O)CO)O1 (stereo partly shown) [Budesonide, budesonide, reference compound]
WI-38 cells [1]
  PGE2 production: 2688 pg/mL
WI-38 cells [2]; Homo sapiens, WI-38
  IC50: 0.2 nM
Paw edema; dose 0.001 μg/paw, 1.5 hours
  percent reduction in paw volume: 0%
Paw edema; dose 0.001 μg/paw, 3 hours
  percent reduction in paw volume: 20%
Paw edema; dose 0.001 μg/paw, 4.5 hours
  percent reduction in paw volume: 15%
Paw edema; dose 0.001 μg/paw, 24 hours
  percent reduction in paw volume: 4%
Paw edema; dose 0.001 μg/paw, 48 hours
  percent reduction in paw volume: 3%
Paw edema; dose 0.001 μg/paw, 72 hours
  percent reduction in paw volume: 0%
Paw edema; dose 0.01 μg/paw, 1.5 hours
  percent reduction in paw volume: 0%
Paw edema; dose 0.01 μg/paw, 3 hours
  percent reduction in paw volume: 18%
Paw edema; dose 0.01 μg/paw, 4.5 hours
  percent reduction in paw volume: 0%
Paw edema; dose 0.01 μg/paw, 24 hours
  percent reduction in paw volume: 11%
Paw edema; dose 0.01 μg/paw, 48 hours
  percent reduction in paw volume: 0%
Paw edema; dose 0.01 μg/paw, 72 hours
  percent reduction in paw volume: 3%
Paw edema; dose 0.1 μg/paw, 1.5 hours
  percent reduction in paw volume: 14%
Paw edema; dose 0.1 μg/paw, 3 hours
  percent reduction in paw volume: 5%
Paw edema; dose 0.1 μg/paw, 4.5 hours
  percent reduction in paw volume: 0%
Paw edema; dose 0.1 μg/paw, 24 hours
  percent reduction in paw volume: 0%
Paw edema; dose 0.1 μg/paw, 48 hours
  percent reduction in paw volume: 0%
Paw edema; dose 0.1 μg/paw, 72 hours
  percent reduction in paw volume: 0%
Paw edema; dose 1 μg/paw, 1.5 hours
  percent reduction in paw volume: 36%
Paw edema; dose 1 μg/paw, 3 hours
  percent reduction in paw volume: 45%
Paw edema; dose 1 μg/paw, 4.5 hours
  percent reduction in paw volume: 32%
Paw edema; dose 1 μg/paw, 24 hours
  percent reduction in paw volume: 44%
Paw edema; dose 1 μg/paw, 48 hours
  percent reduction in paw volume: 17%
Paw edema; dose 1 μg/paw, 72 hours
  percent reduction in paw volume: 10%
Paw edema; dose 10 μg/paw, 1.5 hours
  percent reduction in paw volume: 11%
Paw edema; dose 10 μg/paw, 3 hours
  percent reduction in paw volume: 33%
Paw edema; dose 10 μg/paw, 4.5 hours
  percent reduction in paw volume: 34%
Paw edema; dose 10 μg/paw, 24 hours
  percent reduction in paw volume: 70%
Paw edema; dose 10 μg/paw, 48 hours
  percent reduction in paw volume: 38%
Paw edema; dose 10 μg/paw, 72 hours
  percent reduction in paw volume: 6%
RAW 264.7 cells
  PGE2 production: 1339 pg/mL

## CCC=CCC=CCC=CCC=CCC=CCC=CCCC(=O)OCC(=O)C12OC(CCC)OC1CC1C3CCC4=CC(=O)C=CC4(C)C3C(O)CC12C (stereo not shown) [Docosahexaenoic acid ester of budesonide, docosahexaenoic acid ester of budesonide]
WI-38 cells [1]
  PGE2 production: 2075 pg/mL
WI-38 cells [2]
  IC50: 1.1 nM
RAW 264.7 cells
  PGE2 production: 892 pg/mL

## CCCC1OC2CC3C4CCC5=CC(=O)C=CC5(C)C4C(O)CC3(C)C2(C(=O)COC(=O)CC(C)CCCC(C)CCCC(C)CCCC(C)C)O1 (stereo not shown) [Phytanic acid ester of Budesonide, phytanic acid ester of budesonide]
Paw edema; dose 0.0017 μg/paw, 1.5 hours
  percent reduction in paw volume: 0%
Paw edema; dose 0.0017 μg/paw, 3 hours
  percent reduction in paw volume: 10%
Paw edema; dose 0.0017 μg/paw, 4.5 hours
  percent reduction in paw volume: 12%
Paw edema; dose 0.0017 μg/paw, 24 hours
  percent reduction in paw volume: 4%
Paw edema; dose 0.0017 μg/paw, 48 hours
  percent reduction in paw volume: 7%
Paw edema; dose 0.0017 μg/paw, 72 hours
  percent reduction in paw volume: 3%
Paw edema; dose 0.017 μg/paw, 1.5 hours
  percent reduction in paw volume: 0%
Paw edema; dose 0.017 μg/paw, 3 hours
  percent reduction in paw volume: 0%
Paw edema; dose 0.017 μg/paw, 4.5 hours
  percent reduction in paw volume: 0%
Paw edema; dose 0.017 μg/paw, 24 hours
  percent reduction in paw volume: 0%
Paw edema; dose 0.017 μg/paw, 48 hours
  percent reduction in paw volume: 0%
Paw edema; dose 0.017 μg/paw, 72 hours
  percent reduction in paw volume: 6%
Paw edema; dose 0.17 μg/paw, 1.5 hours
  percent reduction in paw volume: 0%
Paw edema; dose 0.17 μg/paw, 3 hours
  percent reduction in paw volume: 0%
Paw edema; dose 0.17 μg/paw, 4.5 hours
  percent reduction in paw volume: 0%
Paw edema; dose 0.17 μg/paw, 24 hours
  percent reduction in paw volume: 0%
Paw edema; dose 0.17 μg/paw, 48 hours
  percent reduction in paw volume: 0%
Paw edema; dose 0.17 μg/paw, 72 hours
  percent reduction in paw volume: 0%
Paw edema; dose 1.7 μg/paw, 1.5 hours
  percent reduction in paw volume: 18%
Paw edema; dose 1.7 μg/paw, 3 hours
  percent reduction in paw volume: 15%
Paw edema; dose 1.7 μg/paw, 4.5 hours
  percent reduction in paw volume: 2%
Paw edema; dose 1.7 μg/paw, 24 hours
  percent reduction in paw volume: 30%
Paw edema; dose 1.7 μg/paw, 48 hours
  percent reduction in paw volume: 17%
Paw edema; dose 1.7 μg/paw, 72 hours
  percent reduction in paw volume: 16%
Paw edema; dose 17 μg/paw, 1.5 hours
  percent reduction in paw volume: 11%
Paw edema; dose 17 μg/paw, 3 hours
  percent reduction in paw volume: 5%
Paw edema; dose 17 μg/paw, 4.5 hours
  percent reduction in paw volume: 2%
Paw edema; dose 17 μg/paw, 24 hours
  percent reduction in paw volume: 74%
Paw edema; dose 17 μg/paw, 48 hours
  percent reduction in paw volume: 79%
Paw edema; dose 17 μg/paw, 72 hours
  percent reduction in paw volume: 65%
Paw edema; rat paw edema model, summary in words
  duration of effect: greatly extended duration of effect

## CCC=CCC=CCC=CCC=CCC=CCCCCCC(=O)OCC(=O)C12OC(CCC)OC1CC1C3CCC4=CC(=O)C=CC4(C)C3C(O)CC12C (stereo not shown) [docosapentaenoic acid ester of budesonide]
WI-38 cells [1]
  PGE2 production: 200 pg/mL
WI-38 cells [2]
  IC50: 9 nM
RAW 264.7 cells
  PGE2 production: 622 pg/mL

## CCC=CCC=CCC=CCC=CCC=CCCCC(=O)OCC(=O)C12OC(CCC)OC1CC1C3CCC4=CC(=O)C=CC4(C)C3C(O)CC12C (stereo not shown) [eicosapentaenoic acid ester of budesonide]
WI-38 cells [1]
  PGE2 production: 806 pg/mL
WI-38 cells [2]
  IC50: 1.3 nM
RAW 264.7 cells
  PGE2 production: 576 pg/mL
